Patent US6914122B2 (priority 2000, dated 2005)
pKi: −log10 of the molar value. *1 amine or outer side, *2 acyl side, *3 side chain or, on linkers, in order; H or OH if unused. Where a SMILES comes first, the peptide text is derived from it. Bridges are numbered along the chain shown (N, C = ends). [ ]: non-standard residue; d: D form. The star is where a group is joined. ξ: configuration not given here. Phe(3-(CH2)7CO) = O=C([C@H](Cc1cccc(CCCCCCCC(=O)[*:3])c1)N[*:1])[*:2]; Heptanedioyl = O=C(CCCCCC(=O)[*:2])[*:1]; Azelaoyl = O=C(CCCCCCCC(=O)[*:2])[*:1]; Suberoyl = O=C(CCCCCCC(=O)[*:2])[*:1]; Adipoyl = O=C(CCCCC(=O)[*:2])[*:1]; Glutaryl = O=C(CCCC(=O)[*:2])[*:1]; X1 = CCCC(N[*:1])C(=O)C(=O)[*:2]; Chg = N[C@H](C(=O)O)C1CCCCC1; Phg = N[C@H](C(=O)O)c1ccccc1; Suc = O=C(CCC(=O)[*:2])[*:1]; ξChg = NC(C(=O)O)C1CCCCC1; OtBu = CC(C)(C)O*

Biological target: Recombinant heterodimeric HCV NS3/NS4A protease (strain 1a) (Hepatitis C virus genotype 1a, UniProt P27958)
Assay: biochemical
Design: species or system HCV (strain 1a)

Sequence of Recombinant heterodimeric HCV NS3/NS4A protease (strain 1a) (P27958 1027-1657 limits assumed): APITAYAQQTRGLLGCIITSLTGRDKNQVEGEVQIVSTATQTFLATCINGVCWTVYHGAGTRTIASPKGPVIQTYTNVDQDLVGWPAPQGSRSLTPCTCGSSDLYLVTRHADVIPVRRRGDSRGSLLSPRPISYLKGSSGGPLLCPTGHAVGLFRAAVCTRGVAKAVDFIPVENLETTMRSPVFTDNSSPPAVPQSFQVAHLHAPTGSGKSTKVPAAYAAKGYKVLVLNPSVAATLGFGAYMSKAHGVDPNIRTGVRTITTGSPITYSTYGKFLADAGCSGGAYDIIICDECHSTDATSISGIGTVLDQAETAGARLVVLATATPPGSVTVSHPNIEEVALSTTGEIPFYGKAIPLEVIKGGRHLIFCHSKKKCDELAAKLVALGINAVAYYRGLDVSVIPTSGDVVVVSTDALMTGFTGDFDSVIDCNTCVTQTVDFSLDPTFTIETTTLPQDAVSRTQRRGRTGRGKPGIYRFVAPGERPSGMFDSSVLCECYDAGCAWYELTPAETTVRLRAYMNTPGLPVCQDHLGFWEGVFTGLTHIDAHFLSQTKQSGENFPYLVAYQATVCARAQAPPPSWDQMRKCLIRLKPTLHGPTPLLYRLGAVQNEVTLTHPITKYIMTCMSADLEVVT
Sequence of Recombinant heterodimeric HCV NS3/NS4A protease (strain 1a) (P27958 1658-1711 partner limits assumed): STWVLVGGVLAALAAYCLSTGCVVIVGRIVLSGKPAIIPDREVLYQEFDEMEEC

SMILES | pKi
CCCC(NC(=O)[C@@H]1CCCCNC(=O)CCCC(=O)NCC(=O)N[C@@H](C2CCCCC2)C(=O)N1)C(=O)C(=O)NCC(=O)N[C@H](C(N)=O)c1ccccc1 (some centres unmarked) [Example 50] (G[Chg]K[X1]G[Phg]-NH2; linker N-3 via Glutaryl) | 4.00 to 5.96
CCCC(NC(=O)C1Cc2cccc(c2)Oc2ccc(cc2)CCC(=O)NCC(=O)N1)C(=O)C(=O)NCC(=O)NC(C(=O)O)c1ccccc1 (centres unmarked) [Example 10] | 4.00 to 5.96
CCCC(NC(=O)[C@H]1Cc2cccc(c2)Oc2ccc(cc2)CCC(=O)N[C@@H](C2CCCCC2)C(=O)O1)C(=O)C(=O)NCC(=O)N[C@H](C(=O)OC(C)(C)C)c1ccccc1 (some centres unmarked) [Example 37] | 4.00 to 5.96
CCCC(NC(=O)[C@@H]1Cc2cccc(c2)OCCCCCCOC(=O)N[C@@H](C2CCCCC2)C(=O)N1)C(=O)C(=O)NCC(=O)N[C@H](C(=O)O)c1ccccc1 (some centres unmarked) [Example 22] | 6.00 to 9.00
CCCC(NC(=O)C1Cc2cccc(c2)Oc2ccc(cc2)CC(NC(C)=O)C(=O)NC(C2CCCCC2)C(=O)N1)C(=O)C(=O)NCC(=O)OC(C)(C)C (centres unmarked) [Example 31] | 4.00 to 5.96
CCCC(NC(=O)[C@@H]1CCCCNC(=O)CCC(=O)NCC(=O)N[C@@H](C2CCCCC2)C(=O)N1)C(=O)C(=O)NCC(=O)N[C@H](C(N)=O)c1ccccc1 (some centres unmarked) [Example 49] (G[Chg]K[X1]G[Phg]-NH2; linker N-3 via Suc) | 4.00 to 5.96
CCCC(NC(=O)C1Cc2cccc(c2)Oc2ccc(cc2)CCC(=O)NC(C2CCCCC2)C(=O)N1)C(=O)C(=O)NCC(=O)NC(C(=O)O)c1ccccc1 (centres unmarked) [Example 2] | 6.00 to 9.00
CCCC(NC(=O)[C@@H]1Cc2cccc(c2)OCCCCCCC(=O)N[C@@H](C2CCCCC2)C(=O)N1)C(=O)C(=O)NCC(=O)N[C@H](C(=O)OC(C)(C)C)c1ccccc1 (some centres unmarked) [Example 11] | 4.00 to 5.96
CCCC(NC(=O)C1Cc2cccc(c2)Oc2ccc(cc2)CCCC(=O)NC(C2CCCCC2)C(=O)N1)C(=O)C(=O)NCC(=O)NC(C(=O)O)c1ccccc1 (centres unmarked) [Example 6] | 6.00 to 9.00
CCCC(NC(=O)C1Cc2cccc(c2)OCCCCCCOC(=O)NC(C2CCCCC2)C(=O)N1)C(=O)C(=O)NCC(=O)N[C@H](C(=O)N(C)C)c1ccccc1 (some centres unmarked) [Example 39] | 6.00 to 9.00
CCCC(NC(=O)[C@@H]1CCCCNC(=O)CCC(=O)N[C@H](CC(=O)O)C(=O)N[C@@H](C2CCCCC2)C(=O)N1)C(=O)C(=O)NCC(=O)N[C@H](C(N)=O)c1ccccc1 (some centres unmarked) [Example 45] ([dD][Chg]K[X1]G[Phg]-NH2; linker N-3 via Suc) | 4.00 to 5.96
CCCC(NC(=O)C1Cc2cn(cn2)CCCCCCCC(=O)NC(C2CCCCC2)C(=O)N1)C(=O)C(=O)NCC(=O)NC(C(=O)OC(C)(C)C)c1ccccc1 (centres unmarked) [Example 23] | 4.00 to 5.96
CCCC(NC(=O)[C@@H]1Cc2cccc(c2)OCCCCCC(=O)N[C@@H](C2CCCCC2)C(=O)N1)C(=O)C(=O)NCC(=O)N[C@H](C(=O)O)c1ccccc1 (some centres unmarked) [Example 14] | 4.00 to 5.96
CCCC(NC(=O)[C@@H]1Cc2cccc(c2)CCCCCCCC(=O)N[C@@H](C2CCCCC2)C(=O)N1)C(=O)C(=O)NCC(=O)N[C@H](C(=O)OC(C)(C)C)c1ccccc1 (some centres unmarked) [Example 17] ([Chg][Phe(3-(CH2)7CO)][X1]G[Phg]-OtBu; lactam N-2) | 4.00 to 5.96
CCCC(NC(=O)[C@@H]1CCCCNC(=O)CCCCC(=O)N[C@@H](C2CCCCC2)C(=O)N1)C(=O)C(=O)NCC(=O)N[C@H](C(N)=O)c1ccccc1 (some centres unmarked) [Example 52] ([Chg]K[X1]G[Phg]-NH2; linker N-2 via Adipoyl) | 6.00 to 9.00
CCCC(NC(=O)C1Cc2cccc(c2)Oc2ccc(cc2)CC(NC(=O)OC(C)(C)C)C(=O)NC(C2CCCCC2)C(=O)N1)C(=O)C(=O)NCC(=O)O (centres unmarked) [Example 28] | 4.00 to 5.96
CCCC(NC(=O)[C@@H]1CCCCNC(=O)Cc2cccc(c2)CC(=O)N[C@@H](C2CCCCC2)C(=O)N1)C(=O)C(=O)NCC(=O)N[C@H](C(N)=O)c1ccccc1 (some centres unmarked) [Example 43] | 6.00 to 9.00
CCCC(NC(=O)C1Cc2cccc(c2)Oc2ccc(cc2)CCCCC(=O)NC(C2CCCCC2)C(=O)N1)C(=O)C(=O)NCC(=O)NC(C(=O)O)c1ccccc1 (centres unmarked) [Example 8] | 6.00 to 9.00
CCCC(NC(=O)[C@@H]1CCCCNC(=O)CCC(=O)N[C@@H](C2CCCCC2)C(=O)N1)C(=O)C(=O)NCC(=O)N[C@H](C(N)=O)c1ccccc1 (some centres unmarked) [Example 51] ([Chg]K[X1]G[Phg]-NH2; linker N-2 via Suc) | 4.00 to 5.96
CCCC(NC(=O)C1Cc2cccc(c2)Oc2ccc(cc2)CC(NC(C)=O)C(=O)NC(C2CCCCC2)C(=O)N1)C(=O)C(=O)NCC(=O)NC(C(=O)OC(C)(C)C)c1ccccc1 (centres unmarked) [Example 29] | 4.00 to 5.96
CCCC(NC(=O)[C@@H]1Cc2cccc(c2)CCCCCCCC(=O)N[C@@H](C2CCCCC2)C(=O)N1)C(=O)C(=O)NCC(=O)N[C@H](C(=O)O)c1ccccc1 (some centres unmarked) [Example 18] ([Chg][Phe(3-(CH2)7CO)][X1]G[Phg]-OH; lactam N-2) | 6.00 to 9.00
CCCC(NC(=O)[C@@H]1CCCCNC(=O)Cc2ccc(cc2)CC(=O)N[C@@H](C2CCCCC2)C(=O)N1)C(=O)C(=O)NCC(=O)N[C@H](C(N)=O)c1ccccc1 (some centres unmarked) [Example 44] | 6.00 to 9.00

SMILES | pKi
CCCC(NC(=O)[C@@H]1CCCCNC(=O)CCCCCCC(=O)N[C@@H](C2CCCCC2)C(=O)N1)C(=O)C(=O)NCC(=O)N[C@H](C(N)=O)c1ccccc1 (some centres unmarked) [Example 41] ([Chg]K[X1]G[Phg]-NH2; linker N-2 via Suberoyl) | 6.00 to 9.00
CCCC(NC(=O)[C@@H]1CCCCNC(=O)CCC(=O)N[C@H](CCC(=O)O)C(=O)N[C@@H](C2CCCCC2)C(=O)N1)C(=O)C(=O)NCC(=O)N[C@H](C(N)=O)c1ccccc1 (some centres unmarked) [Example 47] ([dE][Chg]K[X1]G[Phg]-NH2; linker N-3 via Suc) | 4.00 to 5.96
CCCC(NC(=O)C1Cc2cccc(c2)Oc2ccc(cc2)CCC(=O)NC(C2CCCCC2)C(=O)O1)C(=O)C(=O)NCC(=O)NC(C(=O)OC(C)(C)C)c1ccccc1 (centres unmarked) [Example 33] | 4.00 to 5.96
CCCC(NC(=O)[C@@H]1Cc2cccc(c2)Oc2ccc(cc2)CC(NC(C)=O)C(=O)N[C@@H](C2CCCCC2)C(=O)N1)C(=O)C(=O)NCC(=O)O (some centres unmarked) [Example 32] | 4.00 to 5.96
CCCC(NC(=O)C1Cc2cccc(c2)Oc2ccc(cc2)CCC(=O)NC(C2CCCCC2)C(=O)O1)C(=O)C(=O)NCC(=O)NC(C(=O)O)c1ccccc1 (centres unmarked) [Example 34] | 4.00 to 5.96
CCCC(NC(=O)C1Cc2cccc(c2)Oc2ccc(cc2)CCCCC(=O)NC(C2CCCCC2)C(=O)N1)C(=O)C(=O)NCC(=O)NC(C(=O)OC(C)(C)C)c1ccccc1 (centres unmarked) [Example 7] | 4.00 to 5.96
CCCC(NC(=O)[C@@H]1Cc2cccc(c2)OCCCCCCC(=O)N[C@@H](C2CCCCC2)C(=O)N1)C(=O)C(=O)NCC(=O)N[C@H](C(=O)O)c1ccccc1 (some centres unmarked) [Example 12] | 6.00 to 9.00
CCCC(NC(=O)[C@@H]1Cc2cccc(c2)OCCCCCNC(=O)N[C@@H](C2CCCCC2)C(=O)N1)C(=O)C(=O)NCC(=O)N[C@H](C(=O)OC(C)(C)C)c1ccccc1 (some centres unmarked) [Example 19] | 4.00 to 5.96
CCCC(NC(=O)[C@@H]1CCCCNC(=O)CCCCCCCC(=O)N[C@@H](C2CCCCC2)C(=O)N1)C(=O)C(=O)NCC(=O)N[C@H](C(N)=O)c1ccccc1 (some centres unmarked) [Example 42] ([Chg]K[X1]G[Phg]-NH2; linker N-2 via Azelaoyl) | 4.00 to 5.96
CCCC(NC(=O)[C@@H]1Cc2cccc(c2)Oc2ccc(cc2)CC(NC(C)=O)C(=O)N[C@@H](C2CCCCC2)C(=O)N1)C(=O)C(=O)NCC(=O)N[C@H](C(=O)O)c1ccccc1 (some centres unmarked) [Example 30] | 6.00 to 9.00
CCCC(NC(=O)[C@@H]1Cc2cccc(c2)OCCCCCC(=O)N[C@@H](C2CCCCC2)C(=O)N1)C(=O)C(=O)NCC(=O)N[C@H](C(=O)OC(C)(C)C)c1ccccc1 (some centres unmarked) [Example 13] | 4.00 to 5.96
CCCC(NC(=O)[C@@H]1Cc2cccc(c2)C=CCCCCCC(=O)N[C@@H](C2CCCCC2)C(=O)N1)C(=O)C(=O)NCC(=O)N[C@H](C(=O)OC(C)(C)C)c1ccccc1 (some centres unmarked) [Example 15] | 4.00 to 5.96
CCCC(NC(=O)[C@@H]1CCCCNC(=O)CCCCCC(=O)N[C@@H](C2CCCCC2)C(=O)N1)C(=O)C(=O)NCC(=O)N[C@H](C(N)=O)c1ccccc1 (some centres unmarked) [Example 53] ([Chg]K[X1]G[Phg]-NH2; linker N-2 via Heptanedioyl) | 6.00 to 9.00
CCCC(NC(=O)[C@@H]1Cc2cccc(c2)OCCCCCNC(=O)N[C@@H](C2CCCCC2)C(=O)N1)C(=O)C(=O)NCC(=O)N[C@H](C(=O)O)c1ccccc1 (some centres unmarked) [Example 20] | 6.00 to 9.00
CCCC(NC(=O)[C@@H]1CCCCNC(=O)CCCC(=O)NC(C2CCCCC2)C(=O)N1)C(=O)C(=O)NCC(=O)N[C@H](C(N)=O)c1ccccc1 (some centres unmarked) [Example 40] ([ξChg]K[X1]G[Phg]-NH2; linker N-2 via Glutaryl) | 4.00 to 5.96
CCCC(NC(=O)[C@@H]1CCCCNC(=O)CCCC(=O)N[C@H](CCC(=O)O)C(=O)N[C@@H](C2CCCCC2)C(=O)N1)C(=O)C(=O)NCC(=O)N[C@H](C(N)=O)c1ccccc1 (some centres unmarked) [Example 48] ([dE][Chg]K[X1]G[Phg]-NH2; linker N-3 via Glutaryl) | 4.00 to 5.96
CCCC(NC(=O)C1Cc2cccc(c2)Oc2ccc(cc2)CCC(=O)NC(C2CCCCC2)C(=O)N1)C(=O)C(=O)NCC(=O)O (centres unmarked) [Example 4] | 4.00 to 5.96
CCCC(NC(=O)C1Cc2cccc(c2)Oc2ccc(cc2)CCC(=O)NC(C2CCCCC2)C(=O)N1)C(=O)C(=O)NCC(=O)OC(C)(C)C (centres unmarked) [Example 3] | 4.00 to 5.96
CCCC(NC(=O)[C@@H]1Cc2cccc(c2)C=CCCCCCC(=O)N[C@@H](C2CCCCC2)C(=O)N1)C(=O)C(=O)NCC(=O)N[C@H](C(=O)O)c1ccccc1 (some centres unmarked) [Example 16] | 6.00 to 9.00
CCCC(NC(=O)[C@H]1Cc2cccc(c2)Oc2ccc(cc2)CCC(=O)N[C@@H](C2CCCCC2)C(=O)O1)C(=O)C(=O)NCC(=O)N[C@H](C(=O)O)c1ccccc1 (some centres unmarked) [Example 38] | 4.00 to 5.96
CCCC(NC(=O)[C@@H]1Cc2cn(cn2)CCCCCCCC(=O)N[C@@H](C2CCCCC2)C(=O)N1)C(=O)C(=O)NCC(=O)N[C@H](C(=O)O)c1ccccc1 (some centres unmarked) [Example 24] | 4.00 to 5.96
CCCC(NC(=O)[C@@H]1CCCCNC(=O)CCCC(=O)N[C@H](CC(=O)O)C(=O)N[C@@H](C2CCCCC2)C(=O)N1)C(=O)C(=O)NCC(=O)N[C@H](C(N)=O)c1ccccc1 (some centres unmarked) [Example 46] ([dD][Chg]K[X1]G[Phg]-NH2; linker N-3 via Glutaryl) | 4.00 to 5.96
